Results reported in US20230117034A1, “PYRAZOLOTRIAZINES” (Bayer Aktiengesellschaft, priority 2019, published 2023).

What was measured:
[1] = target: CDK12/CycK (Homo sapiens, UniProt Q9NYV4); experiment: CDK12/CycK high ATP kinase assay (TR-FRET, 2 mM ATP); format: biochemical; conditions: 2 mM ATP (high ATP); median; read-out: CDK12/CyclinK, 2 mM ATP (high ATP), IC50-[mol/l] (median)
Summary of the method: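 Read-out is TR-FRET (Eu-anti-rabbit IgG, anti-phospho-c-Myc Ser62 antibody, streptavidin-XL665) after EDTA stop. Reaction ran 60 min at 22 °C using 1 µM biotin-peptide and high ATP (2 mM) with roughly 0.75 nM recombinant CDK12/CycK, after 15 min compound pre-binding; normalised emission ratios yield IC50.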

[2] = system: BRCA1 mRNA expression in MDA-MB-231 cells; experiment: qRT-PCR assay: BRCA1 mRNA expression in MDA-MB-231; format: cell-based, human; conditions: Homo sapiens, MDA-MB-231, Inhibition of BRCA1 mRNA expression in MDA-MB-231 cells; median; read-out: RTqPCR-MDA-MB-231, IC50, BRCA1 (median)
Summary of the method: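 First, cells are plated at 200,000 per well and allowed 24 h. Second, test substances are applied continuously for a further 24 h. Finally, RNA is isolated, 600 ng is converted to cDNA, and qPCR quantifies the transcript relative to GAPDH.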

[3] = target: T1, CDK12 (nuclear staining in CAL-120 cells) (Homo sapiens, UniProt Q9NYV4); experiment: CDK12 nuclear protein level: immunofluorescence/high content analysis (CAL-120); format: cell-based; conditions: for DC50: CAL-120 cells, 24 h, immunofluorescence, 50% reduction of nuclear CDK12 staining intensity, median, read-out: CDK12 degradation IF, DC50- [mol/l] (median); for (IC50 CDK12 high ATP) to (Degradation DC50 CDK12) ratio: ratio of IC50 CDK12 high ATP kinase assay to DC50 CDK12 degradation (IF, CAL-120)
T1 construct: endogenous in cells; host or cells: CAL-120 human breast cancer cells (DSMZ ACC 459)
T1 sequence (Q9NYV4 whole entry): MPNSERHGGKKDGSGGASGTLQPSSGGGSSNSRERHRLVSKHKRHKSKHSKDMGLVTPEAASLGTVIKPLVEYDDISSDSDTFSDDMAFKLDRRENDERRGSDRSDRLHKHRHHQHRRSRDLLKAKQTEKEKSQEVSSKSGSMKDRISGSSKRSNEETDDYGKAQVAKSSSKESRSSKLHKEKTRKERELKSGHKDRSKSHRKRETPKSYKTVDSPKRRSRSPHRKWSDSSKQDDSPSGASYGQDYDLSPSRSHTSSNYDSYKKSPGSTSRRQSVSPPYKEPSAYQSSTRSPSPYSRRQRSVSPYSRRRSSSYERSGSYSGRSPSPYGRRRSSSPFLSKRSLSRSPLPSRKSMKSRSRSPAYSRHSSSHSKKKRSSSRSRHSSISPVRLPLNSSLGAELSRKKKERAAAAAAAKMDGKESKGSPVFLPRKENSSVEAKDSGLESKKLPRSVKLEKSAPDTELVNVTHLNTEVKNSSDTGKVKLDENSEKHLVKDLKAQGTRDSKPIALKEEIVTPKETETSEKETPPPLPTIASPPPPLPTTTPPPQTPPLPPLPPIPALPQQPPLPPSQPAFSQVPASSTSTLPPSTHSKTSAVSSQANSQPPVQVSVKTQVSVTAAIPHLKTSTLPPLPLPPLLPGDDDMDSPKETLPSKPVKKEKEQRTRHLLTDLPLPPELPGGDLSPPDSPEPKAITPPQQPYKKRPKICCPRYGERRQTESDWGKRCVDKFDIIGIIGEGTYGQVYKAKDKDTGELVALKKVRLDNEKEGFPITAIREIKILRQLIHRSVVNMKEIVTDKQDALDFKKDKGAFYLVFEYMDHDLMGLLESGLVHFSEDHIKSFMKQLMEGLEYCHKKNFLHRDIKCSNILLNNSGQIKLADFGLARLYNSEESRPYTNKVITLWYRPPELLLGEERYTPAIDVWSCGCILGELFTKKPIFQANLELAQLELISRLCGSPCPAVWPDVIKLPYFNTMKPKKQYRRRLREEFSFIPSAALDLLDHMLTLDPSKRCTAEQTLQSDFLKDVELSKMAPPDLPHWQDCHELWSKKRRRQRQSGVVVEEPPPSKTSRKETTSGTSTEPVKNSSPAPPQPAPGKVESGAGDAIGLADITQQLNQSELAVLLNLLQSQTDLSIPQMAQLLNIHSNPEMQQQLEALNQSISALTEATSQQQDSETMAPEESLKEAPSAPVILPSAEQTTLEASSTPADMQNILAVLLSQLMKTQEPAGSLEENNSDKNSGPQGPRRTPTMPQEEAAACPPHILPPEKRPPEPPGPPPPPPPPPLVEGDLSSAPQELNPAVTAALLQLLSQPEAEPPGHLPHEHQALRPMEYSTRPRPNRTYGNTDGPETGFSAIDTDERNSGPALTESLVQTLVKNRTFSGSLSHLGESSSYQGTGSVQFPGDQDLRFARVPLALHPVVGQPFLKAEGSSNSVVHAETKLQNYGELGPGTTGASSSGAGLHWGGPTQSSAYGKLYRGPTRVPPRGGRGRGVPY
T1 sequence (O75909 whole entry partner): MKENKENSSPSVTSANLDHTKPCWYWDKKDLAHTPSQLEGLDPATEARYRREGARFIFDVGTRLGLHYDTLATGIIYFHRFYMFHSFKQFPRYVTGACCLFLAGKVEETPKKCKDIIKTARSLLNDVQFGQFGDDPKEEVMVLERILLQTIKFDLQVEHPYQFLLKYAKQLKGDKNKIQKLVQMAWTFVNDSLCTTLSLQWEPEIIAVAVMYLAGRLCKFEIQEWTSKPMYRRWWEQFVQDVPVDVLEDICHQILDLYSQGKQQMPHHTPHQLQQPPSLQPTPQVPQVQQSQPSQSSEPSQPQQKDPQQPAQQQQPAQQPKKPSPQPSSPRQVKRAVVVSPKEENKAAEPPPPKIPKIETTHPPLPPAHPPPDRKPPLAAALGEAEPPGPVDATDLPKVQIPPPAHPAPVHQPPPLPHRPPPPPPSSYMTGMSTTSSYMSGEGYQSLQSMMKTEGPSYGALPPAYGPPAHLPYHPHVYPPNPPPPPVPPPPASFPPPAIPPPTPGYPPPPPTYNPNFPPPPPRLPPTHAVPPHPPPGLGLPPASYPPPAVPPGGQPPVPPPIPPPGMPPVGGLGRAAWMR
Summary of the method: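 DC50 is the degrader concentration that halves nuclear CDK12 immunofluorescence relative to controls, measured by high-content imaging. CAL-120 cells were exposed to compound for 24 h at 37 °C before PFA fixation, and signal was normalized to DMSO and control wells.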

Sequence of CDK12/CycK (Q9NYV4 with tags, fused parts or gaps): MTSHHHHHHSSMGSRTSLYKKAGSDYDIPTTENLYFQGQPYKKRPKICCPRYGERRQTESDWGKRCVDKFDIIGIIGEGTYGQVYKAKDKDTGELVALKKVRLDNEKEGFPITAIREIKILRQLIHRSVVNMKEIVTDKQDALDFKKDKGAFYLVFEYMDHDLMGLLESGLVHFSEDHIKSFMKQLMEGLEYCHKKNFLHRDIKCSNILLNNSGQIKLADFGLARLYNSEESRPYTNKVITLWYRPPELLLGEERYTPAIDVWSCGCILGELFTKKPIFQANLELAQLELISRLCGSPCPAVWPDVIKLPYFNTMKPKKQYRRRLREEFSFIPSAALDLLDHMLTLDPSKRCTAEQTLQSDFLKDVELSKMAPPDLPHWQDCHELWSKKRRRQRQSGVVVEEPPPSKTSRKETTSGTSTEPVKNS
Sequence of CDK12/CycK (O75909 1-300 partner limits assumed): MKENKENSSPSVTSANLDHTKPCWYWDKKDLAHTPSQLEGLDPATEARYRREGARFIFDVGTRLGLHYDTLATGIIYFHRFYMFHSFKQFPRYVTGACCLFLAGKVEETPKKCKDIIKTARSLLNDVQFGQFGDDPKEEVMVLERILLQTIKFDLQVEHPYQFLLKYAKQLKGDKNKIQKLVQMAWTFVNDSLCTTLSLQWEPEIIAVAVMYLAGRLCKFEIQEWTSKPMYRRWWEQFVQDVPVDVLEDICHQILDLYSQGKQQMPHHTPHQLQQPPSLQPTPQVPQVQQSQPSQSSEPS

IC50 [1]	IC50 [2]	DC50 [3]	(IC50 CDK12 high ATP) to (Degradation DC50 CDK12) ratio [3]	Structure (SMILES)
17400 nM	51.5 nM	7.59 nM	2294	CN1CCN(c2nc(NCc3nc4ccccc4[nH]3)n3ncc(C(F)(F)F)c3n2)CC1 [Example 297, N-[(1H-benzimidazol-2-yl)methyl]-2-(4-methylpiperazin-1-yl)-8-(trifluoromethyl)pyrazolo[1,5-a][1,3,5]triazin-4-amine]
8310 nM	4.12 nM	4.22 nM	1968	CN1CCN(c2nc(NCc3nc4cc(Cl)ccc4[nH]3)n3ncc(C(F)(F)F)c3n2)CC1 [Example 298, N-[(5-chloro-1H-benzimidazol-2-yl)methyl]-2-(4-methylpiperazin-1-yl)-8-(trifluoromethyl)pyrazolo[1,5-a][1,3,5]triazin-4-amine]
6390 nM	8.86 nM	7.77 nM	822	FC(F)(F)Cc1cnn2c(NCc3nc4cc(Cl)ccc4[nH]3)nc(N3CCOCC3)nc12 [Example 299, N-[(5-chloro-1H-benzimidazol-2-yl)methyl]-2-(morpholin-4-yl)-8-(2,2,2-trifluoroethyl)pyrazolo[1,5-a][1,3,5]triazin-4-amine]
> 20000 nM	12.6 nM	17.9 nM	>1120	CCNC1CCN(c2nc(NCc3nc4ccccc4[nH]3)n3ncc(Br)c3n2)CC1 [Example 300]
1180 nM	6.73 nM	4.37 nM	270	Clc1cc2nc(CNc3nc(N4CCOCC4)nc4c(C5CC5)cnn34)[nH]c2cc1Cl [Example 301, 8-cyclopropyl-N-[(5,6-dichloro-1H-benzimidazol-2-yl)methyl]-2-(morpholin-4-yl)pyrazolo[1,5-a][1,3,5]triazin-4-amine]
5960 nM	9.06 nM		557	FC(F)(F)Cc1cnn2c(NCc3nc4cc(Cl)c(Cl)cc4[nH]3)nc(N3CCOCC3)nc12 [Example 302, N-[(5,6-dichloro-1H-benzimidazol-2-yl)methyl]-2-(morpholin-4-yl)-8-(2,2,2-trifluoroethyl)pyrazolo[1,5-a][1,3,5]triazin-4-amine]
1710 nM	4.79 nM	11 nM	155	Fc1cccc2[nH]c(CNc3nc(N4CCOCC4)nc4c(CC(F)(F)F)cnn34)nc12 [Example 303, N-[(4-fluoro-1H-benzimidazol-2-yl)methyl]-2-(morpholin-4-yl)-8-(2,2,2-trifluoroethyl)pyrazolo[1,5-a][1,3,5]triazin-4-amine]
1850 nM	6.94 nM	12.7 nM	146	CN(CC(C)(C)O)c1nc(NCc2nc3cc(Cl)c(Cl)cc3[nH]2)n2ncc(C3CC3)c2n1 [Example 306, 1-[(8-cyclopropyl-4-{[(5,6-dichloro-1H-benzimidazol-2-yl)methyl]amino}pyrazolo[1,5-a][1,3,5]triazin-2-yl)(methyl)amino]-2-methylpropan-2-ol]
1570 nM	8.07 nM	8.26 nM	190	Fc1cc2nc(CNc3nc(N4CCOCC4)nc4c(C5CC5)cnn34)[nH]c2cc1Cl [Example 307, N-[(6-chloro-5-fluoro-1H-benzimidazol-2-yl)methyl]-8-cyclopropyl-2-(morpholin-4-yl)pyrazolo[1,5-a][1,3,5]triazin-4-amine]
6400 nM	5.46 nM	4.93 nM	1297	Fc1ccc2[nH]c(CNc3nc(N4CCOCC4)nc4c(CC(F)(F)F)cnn34)nc2c1 [Example 308, N-[(5-fluoro-1H-benzimidazol-2-yl)methyl]-2-(morpholin-4-yl)-8-(2,2,2-trifluoroethyl)pyrazolo[1,5-a][1,3,5]triazin-4-amine]
> 20000 nM	5.83 nM	8.53 nM	>2346	CN1CCN(c2nc(NCc3nc4cc(F)c(Cl)cc4[nH]3)n3ncc(C4CC4)c3n2)CC1 [Example 309, N-[(6-chloro-5-fluoro-1H-benzimidazol-2-yl)methyl]-8-cyclopropyl-2-(4-methylpiperazin-1-yl)pyrazolo[1,5-a][1,3,5]triazin-4-amine]
> 20000 nM	3.42 nM	6.15 nM	>3251	CN1CCN(c2nc(NCc3nc4cc(F)c(F)cc4[nH]3)n3ncc(C4CC4)c3n2)CC1 [Example 311, 8-cyclopropyl-N-[(5,6-difluoro-1H-benzimidazol-2-yl)methyl]-2-(4-methylpiperazin-1-yl)pyrazolo[1,5-a][1,3,5]triazin-4-amine]
10200 nM	2.04 nM	3.9 nM	2616	Cc1cc2nc(CNc3nc(N4CCN(C)CC4)nc4c(C5CC5)cnn34)[nH]c2cc1C [Example 312, 8-cyclopropyl-N-[(5,6-dimethyl-1H-benzimidazol-2-yl)methyl]-2-(4-methylpiperazin-1-yl)pyrazolo[1,5-a][1,3,5]triazin-4-amine]
979 nM	6.9 nM	5.47 nM	179	CN(CC(C)(C)O)c1nc(NCc2nc3cc(F)c(Cl)cc3[nH]2)n2ncc(C3CC3)c2n1 [Example 317, 1-[(4-{[(6-chloro-5-fluoro-1H-benzimidazol-2-yl)methyl]amino}-8-cyclopropylpyrazolo[1,5-a][1,3,5]triazin-2-yl)(methyl)amino]-2-methylpropan-2-ol]
1360 nM	0.97 nM	3.51 nM	387	Fc1cc2nc(CNc3nc(N4CCOCC4)nc4c(C5CC5)cnn34)[nH]c2cc1F [Example 318, 8-cyclopropyl-N-[(5,6-difluoro-1H-benzimidazol-2-yl)methyl]-2-(morpholin-4-yl)pyrazolo[1,5-a][1,3,5]triazin-4-amine]

Structure (SMILES)	IC50 [1]	IC50 [2]	DC50 [3]	(IC50 CDK12 high ATP) to (Degradation DC50 CDK12) ratio [3]
Fc1ccc2[nH]c(CNc3nc(N4CC5CCC(C4)N5)nc4c(C(F)(F)F)cnn34)nc2c1F [Example 310, 2-(3,8-diazabicyclo[3.2.1]octan-3-yl)-N-[(4,5-difluoro-1H-benzimidazol-2-yl)methyl]-8-(trifluoromethyl)pyrazolo[1,5-a][1,3,5]triazin-4-amine]	1290 nM	35.1 nM	17.3 nM	75
